Measured values taken from patent US20230241024A1, “METHODS OF TREATING METABOLIC DISORDERS” (Sunovion Pharmaceuticals Inc., priority 2021, published 2023).

Assays:
[1] = tested on: female Sprague Dawley rats fed on a high-fat powdered diet; assay: Body weight, food intake, body composition and liver triglycerides, once daily dosing up to 15 days, high-fat diet rats (Example 2.1); type: in vivo, rat; settings: Olanzapine 3 mg/kg po
Experimental: Body weight and food and water intake were assessed daily.
Animals: Seventy-four (2 spares) female Sprague Dawley rats (weight range 200-300 g) were ordered from Charles River, Margate, Kent. Rats were singly housed in cages with sawdust bedding and enrichment at an ambient temperature of 21 ± 2° C. Upon arrival (Thursday), rats were weighed and given wet mash to aid recovery from transport. Rats were weighed the following day and on the Monday of the following week. Animals were maintained on a reverse-phase light-dark cycle (lights off for 8 hours from 10:00-18 :00 h) during which time the room was illuminated by red light. Rats were weighed on the Friday and Monday of the following week. […] Except for 12 animals (Group F), all animals had free access to a high-fat powdered diet (VRF1 plus 20% lard). […] All rats had access to filtered water at all times. The diets were contained in glass feeding jars with aluminum lids (Solmedia Laboratory Suppliers. Romford. Essex). […] Animals were accustomed to these conditions for at least two weeks before experimentation.
Experimental Procedure: Animals underwent a 3-day baseline run-in period during which time all rats were dosed once a day with vehicle. Dosing was timed to start at approximately 08:45 so that the mid-point was approximately the time of lights out. Animals, food and water were weighed at the time of dosing. Towards the end of the baseline period, animals were weighed (to the nearest 0.1 g using an electronic top-pan balance) and allocated by a statistician. The spare animals were humanely withdrawn from the study.
Dosing (in a randomized order) began at approximately 08:45 h each day (0 h), i.e., the mid-point of dosing is approximately at the time of lights out. Body weight, food and water intake was recorded daily at the time of dosing. All rats were observed before and after dosing and comments on condition were noted as appropriate. On the afternoon of Day 14 (approx. 16:00) animals were fasted to a timed schedule. The experiment ended the following morning on Day 15. On the morning of Day 15, final readings were undertaken 16 hour post-fast (i.e., body weight measurements). Animals were then dosed (as described). Four hours later, a blood sample (1 mL) was taken from the lateral tail vein into tubes containing lithium heparin. […] Animals were then terminated by a Schedule 1 method (exposure to an increasing concentration of C02 with death confirmed by cervical dislocation). A terminal blood sample (circa 4 mL) was taken into an EDTA-coated tube and a single plasma aliquot (approximately 1 mL) was stored frozen (approx. -80° C.) in a clean aliquot tube. The liver was dissected and the caudate lobe removed. Both the caudate lobe and the remaining liver were weighed and stored frozen separately (on dry ice and then transferred to a freezer at approx. -80° C.). The caudate lobe underwent option further analysis of liver triglycerides.

[2] = tested on: female Sprague Dawley rats previously treated with olanzapine; assay: Body weight, food intake, body composition and liver triglycerides of rats previously treated with olanzapine and switched (Example 2.2); type: in vivo, rat
Experimental: Rats were singly housed in cages with sawdust bedding and enrichment at an ambient temperature of 21±2° C. Upon arrival (Thursday), rats were weighed and given wet mash to aid recovery from transport. Rats were weighed the following day and the Monday of the following week. Animals were maintained on a reverse-phase light-dark cycle (lights off for 8 h from 10:00-18:00 h) during which time the room was illuminated by red light. Rats were weighed on the Friday and Monday of the following week. […] All animals had free access to a high-fat powdered diet (VRF1 plus 20% lard) and all rats had access to filtered water at all times. The diets were contained in glass feeding jars with aluminum lids (Solmedia Laboratory Suppliers, Romford, Essex). […] Animals were accustomed to these conditions for at least two weeks before experimentation.
Dosing was timed to start at approximately 08:45 so that the mid-point was approximately the time of lights out. Animals, food and water were weighed at the time of dosing. Towards the end of this baseline period, animals were weighed (to the nearest 0.1 g using an electronic top-pan balance) and allocated into 2 weight-matched treatment groups by a Statistician.
Dosing began at approximately 08:45 h each day (0 h), i.e., so the mid-point of dosing was approximately at the time of lights out. This strategy was taken to maximize the impact of the drugs on food intake. Dosing continued for 7 consecutive days and rats were weighed (to the nearest 0.1 g) every day at 0 h. Prior to and at the completion of each dosing session animals were examined and any overt behavioral/physiological effects or other relevant observations regarding the condition of the animals was recorded manually. […] and food intake were assessed daily.
Dosing began at approximately 08:45 h each day (0h), i.e., the mid-point of dosing was approximately at the time of lights out. Body weight, food and water intake was recorded daily at the time of dosing. All rats were observed before and after dosing and comments on condition were noted as appropriate. On the afternoon of Day 14 (approx. 16:00) animals were fasted to a timed schedule. The experiment ended the following morning on Day 15. On the morning of Day 15, final readings were undertaken 16 h post-fast (i.e., body weight measurements). Animals were then dosed (as described). Four hours later, two blood samples (20 µL and 1 mL) were taken from the lateral tail vein into tubes containing lithium heparin. The 20 µL sample was stored frozen (whole blood) prior to determination of HbAlc (Roche Tina-quant A2c Gen 3, Cobas C111). […] Animals were then terminated by a Schedule 1 method (exposure to an increasing concentration of CO2 with death confirmed by cervical dislocation). A terminal blood sample (circa 4 mL) was taken into EDTA-coated tube and a single plasma aliquot (approximately 1 mL) was stored frozen (approx. -80° C.) in a clean aliquot tube. The liver was dissected and the caudate lobe removed. Both the caudate lobe and the remaining liver was weighed and stored frozen separately (on dry ice and then transferred to a freezer at approx. -80° C.). The caudate lobe underwent further analysis of liver triglycerides. Carcasses were stored frozen (approx. -20° C.) for potential body composition analysis. Metabolic parameters including fasting glucose and insulin levels, liver triglycerides and body fat composition were determined at the end of the study.

[3] = Food effect on the pharmacokinetics of 50 mg tablet (Example 10); settings: 50 mg Compound 1 tablet
Description: Methods: The study used an open-label randomized 2-period crossover design in 20 healthy volunteers. Subjects were fasted overnight then randomly assigned to 1 of 2 dosing sequences, A ➔ B or B ➔ A, where A was the fasted condition and B was the fed condition. […] The fed and fasted dosing periods were separated by one week. Serial plasma samples from each period were collected for PK analysis.
Solid phase extraction was used for sample cleanup. Stable isotope-labeled internal standards were used for corresponding analytes. Noncompartment PK parameters were calculated using Phoenix WinNonlin® software.

[4] = Week 1 (Day 1-8), Olanzapine 3 mg/kg po
[5] = Week 2 (Day 8-13), after olanzapine Day 1-7, 3 mg/kg po
[6] = Week 2 (Day 8-14), continued Olanzapine 3 mg/kg po
[7] = from Day 8, after olanzapine Day 1-7, 3 mg/kg po

Cc1cc2c(s1)Nc1ccccc1N=C2N1CCN(C)CC1 [Olanzapine, olanzapine]
Fat in carcass % change vs vehicle [1]: 8.8% | Fat in carcass Difference vs vehicle [1]: 1.4% | Fat in carcass, Mean [1]: 16.9% | Fat per rat % change vs vehicle [1]: 12.4% | Fat per rat Difference vs vehicle [1]: 5.2 g | Fat per rat, Mean [1]: 47.0 g | Liver Total triglycerides Mean [1]: 227.46 µmol | Liver Total triglycerides vs vehicle [1]: 85.6 | Liver triglycerides % vs vehicle [1]: 77.1% | Liver triglycerides, Mean [1]: 25.07 µmol/g | Protein in carcass % change vs vehicle [1]: -1.8% | Protein in carcass Difference vs vehicle [1]: -0.38% | Protein in carcass, Mean [1]: 20.46% | Protein per rat % change vs vehicle [1]: 3.5% | Protein per rat Difference vs vehicle [1]: 1.9 g | Protein per rat, Mean [1]: 56.9 g | Water in carcass % change vs vehicle [1]: -1.4% | Water in carcass Difference vs vehicle [1]: -0.8% | Water in carcass, Mean [1]: 59.9% | Water per rat % change vs vehicle [1]: 3.6% | Water per rat Difference vs vehicle [1]: 5.8 g | Water per rat, Mean [1]: 166.5 g | Daily food intake % change ([1]; Overall (Day 1-13)): 13.6% | Daily food intake Difference ([1]; Overall (Day 1-13)): 2.0 g/day | Daily food intake Mean ([1]; Overall (Day 1-13)): 16.4 g/day | Changes in body weights Difference vs vehicle ([1]; Overall (Day 1-14)): 21.5 g | Changes in body weights Mean ([1]; Overall (Day 1-14)): 33.2 g | increase in body weight, previously shown in-house in this model ([2]; Olanzapine 3 mg/kg po): 4-6% | Averages of daily food intakes, Difference vs Vehicle (A) ([2]; Week 1 (Day 1-7), 3 mg/kg po): 1.90 g/day | Averages of daily food intakes, Mean ([2]; Week 1 (Day 1-7), 3 mg/kg po): 17.21 g/day | Changes in body weights Difference vs Vehicle (A) [2, 4]: 13.07 g | Changes in body weights Mean [2, 4]: 25.48 g | Averages of daily food intakes, Difference vs Vehicle (A) [2, 5]: 1.60 g/day | Averages of daily food intakes, Mean [2, 5]: 16.73 g/day | Changes in body weights Difference vs Vehicle (A) [2, 6]: 7.55 g | Changes in body weights Mean [2, 6]: 16.70 g | Fat in carcass, % change vs Vehicle (A) [2, 7]: 18.3% | Fat in carcass, Difference vs Vehicle (A) [2, 7]: 2.4% | Fat in carcass, Mean [2, 7]: 15.8% | Fat per rat, % change vs Vehicle (A) [2, 7]: 22.7% | Fat per rat, Difference vs Vehicle (A) [2, 7]: 8.0 g | Fat per rat, Mean [2, 7]: 43.3 g | Final carcass weight, % change vs Vehicle (A) [2, 7]: 4.1% | Final carcass weight, Mean [2, 7]: 271.9 g | Liver triglycerides (µmol total), % vs Vehicle (A) [2, 7]: 100.4% | Liver triglycerides (µmol/g), % vs Vehicle (A) [2, 7]: 100.0% | Liver triglycerides, Mean [2, 7]: 348 µmol total | Protein in carcass, % change vs Vehicle (A) [2, 7]: -2.4% | Protein in carcass, Difference vs Vehicle (A) [2, 7]: -0.49% | Protein in carcass, Mean [2, 7]: 20.24% | Protein per rat, % change vs Vehicle (A) [2, 7]: 1.6% | Protein per rat, Difference vs Vehicle (A) [2, 7]: 0.9 g | Protein per rat, Mean [2, 7]: 55.0 g | Water in carcass, % change vs Vehicle (A) [2, 7]: -3.6% | Water in carcass, Difference vs Vehicle (A) [2, 7]: -2.2% | Water in carcass, Mean [2, 7]: 60.4% | Water per rat, % change vs Vehicle (A) [2, 7]: 0.3% | Water per rat, Difference vs Vehicle (A) [2, 7]: 0.6 g | Water per rat, Mean [2, 7]: 163.9 g

NC[C@@H]1OCCc2ccsc21 [metabolite]
geometric mean ratio for AUC0-∞ (fed/fasted) [3]: 98.29% | geometric mean ratio of Cmax (fed/fasted) [3]: 94.77% | ratio of N-desmethyl active metabolite to parent Compound 1, fed versus fasted [3]: no change
